≈ marks a conversion by molar mass, not a printed value.
Experiments:
[1] = test system: Staphylococcus aureus; experiment: Antibacterial activity against methicillin resistant Staphylococcus aureus; type: functional; conditions: GC 1131
[2] = test system: Staphylococcus aureus; experiment: Antibacterial activity against Staphylococcus aureus; type: functional; conditions: GC 4543
[3] = test system: Enterococcus faecalis; experiment: Antibacterial activity against Enterococcus faecalis; type: functional; conditions: GC 4555
[4] = test system: Enterococcus faecalis; experiment: Antibacterial activity against vancomycin resistant Enterococcus faecalis; type: functional; conditions: GC 2242
[5] = test system: Streptococcus pneumoniae; experiment: Antibacterial activity against penicillin resistant Streptococcus pneumoniae; type: functional; conditions: GC 1894
[6] = target: UDP-N-acetylglucosamine 1-carboxyvinyltransferase (Escherichia coli K-12, UniProt P0A749); experiment: Inhibitory activity against MurA in Escherichia coli
[7] = target: T1, UDP-N-acetylenolpyruvoylglucosamine reductase (Escherichia coli K-12, UniProt P08373); experiment: Inhibitory activity against MurB in Escherichia coli
T1 sequence (P08373 whole entry): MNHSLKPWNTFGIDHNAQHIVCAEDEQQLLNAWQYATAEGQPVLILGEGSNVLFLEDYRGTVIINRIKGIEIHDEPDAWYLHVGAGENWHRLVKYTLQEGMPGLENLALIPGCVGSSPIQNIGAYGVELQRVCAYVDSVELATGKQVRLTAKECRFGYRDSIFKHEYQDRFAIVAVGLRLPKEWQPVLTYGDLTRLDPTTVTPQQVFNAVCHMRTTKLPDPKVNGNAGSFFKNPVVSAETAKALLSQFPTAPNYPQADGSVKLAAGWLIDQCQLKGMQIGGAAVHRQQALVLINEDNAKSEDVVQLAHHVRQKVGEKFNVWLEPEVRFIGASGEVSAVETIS

[8] = target: T2, UDP-N-acetylmuramoylalanine--D-glutamate ligase (Escherichia coli K-12, UniProt P14900); experiment: Inhibitory activity against MurD in Escherichia coli
T2 sequence (P14900 whole entry): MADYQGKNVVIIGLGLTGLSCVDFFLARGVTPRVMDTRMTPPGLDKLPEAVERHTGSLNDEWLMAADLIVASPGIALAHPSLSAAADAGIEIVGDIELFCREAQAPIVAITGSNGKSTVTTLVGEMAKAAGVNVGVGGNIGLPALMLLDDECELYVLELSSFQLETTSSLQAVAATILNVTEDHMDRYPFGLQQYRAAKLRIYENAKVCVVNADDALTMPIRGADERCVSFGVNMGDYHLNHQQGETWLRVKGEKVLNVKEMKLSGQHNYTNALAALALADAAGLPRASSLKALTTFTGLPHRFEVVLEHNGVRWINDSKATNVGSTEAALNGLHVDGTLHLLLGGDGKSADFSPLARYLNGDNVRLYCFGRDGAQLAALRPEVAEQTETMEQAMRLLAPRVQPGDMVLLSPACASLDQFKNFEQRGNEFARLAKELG

[9] = target: UDP-N-acetylmuramate--L-alanine ligase (Escherichia coli K-12, UniProt P17952); experiment: Inhibitory activity against MurC in Escherichia coli
UDP-N-acetylmuramate--L-alanine ligase, sequence (P17952 whole entry): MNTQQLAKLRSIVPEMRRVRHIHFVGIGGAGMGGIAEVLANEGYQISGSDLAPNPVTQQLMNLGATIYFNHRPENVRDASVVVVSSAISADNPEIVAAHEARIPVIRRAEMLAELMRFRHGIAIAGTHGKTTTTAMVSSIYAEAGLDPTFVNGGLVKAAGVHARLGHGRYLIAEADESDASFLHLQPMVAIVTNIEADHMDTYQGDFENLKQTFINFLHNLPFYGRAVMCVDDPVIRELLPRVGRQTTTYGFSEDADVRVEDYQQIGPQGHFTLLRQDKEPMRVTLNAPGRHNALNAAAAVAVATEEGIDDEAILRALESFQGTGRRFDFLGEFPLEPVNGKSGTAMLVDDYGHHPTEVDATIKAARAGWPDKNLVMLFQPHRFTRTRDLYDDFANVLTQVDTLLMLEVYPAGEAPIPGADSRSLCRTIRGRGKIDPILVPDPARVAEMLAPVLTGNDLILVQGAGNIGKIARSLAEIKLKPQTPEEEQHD

UDP-N-acetylglucosamine 1-carboxyvinyltransferase, sequence (P0A749 whole entry): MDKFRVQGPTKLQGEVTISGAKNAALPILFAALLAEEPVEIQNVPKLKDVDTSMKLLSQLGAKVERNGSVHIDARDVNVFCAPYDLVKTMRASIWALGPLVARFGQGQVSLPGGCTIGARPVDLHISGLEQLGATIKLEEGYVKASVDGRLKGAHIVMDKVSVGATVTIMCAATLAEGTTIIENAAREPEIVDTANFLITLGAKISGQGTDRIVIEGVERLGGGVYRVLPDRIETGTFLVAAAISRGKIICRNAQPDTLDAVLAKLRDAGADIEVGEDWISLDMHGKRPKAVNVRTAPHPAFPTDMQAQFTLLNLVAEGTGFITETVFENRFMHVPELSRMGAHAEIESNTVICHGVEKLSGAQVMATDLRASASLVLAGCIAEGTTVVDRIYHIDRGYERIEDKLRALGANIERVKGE

Structure (SMILES)	MIC [1] [µg/mL]	MIC [2] [µg/mL]	MIC [3] [µg/mL]	MIC [4] [µg/mL]	MIC [5] [µg/mL]	IC50 [6] [µM]	IC50 [7] [µM]	IC50 [8] [µM]	IC50 [9] [µM]
O=C1O/C(=C\C2CCCCC2)C(O)=C1c1cccc(C(F)(F)F)c1	32 (≈ 94.6 µM)	> 128	64 (≈ 189 µM)	32 (≈ 94.6 µM)	≤ 0.12	> 73.9	> 73.9	> 73.9	–
O=C1O/C(=C\c2ccc(-c3ccccc3)cc2)C(O)=C1c1cccc2ccccc12	8 (≈ 20.5 µM)	4 (≈ 10.2 µM)	32 (≈ 82 µM)	8 (≈ 20.5 µM)	4 (≈ 10.2 µM)	–	> 64	> 64	–
O=C1O/C(=C\c2cc(C(F)(F)F)ccc2Cl)C(O)=C1c1ccc(-c2ccccc2)c(F)c1	1 (≈ 2.17 µM)	1 (≈ 2.17 µM)	4 (≈ 8.68 µM)	1 (≈ 2.17 µM)	0.25 (≈ 0.543 µM)	–	–	–	–
O=C1O/C(=C\c2cccc3ccccc23)C(O)=C1c1ccc(Cl)cc1	8 (≈ 22.9 µM)	8 (≈ 22.9 µM)	16 (≈ 45.9 µM)	8 (≈ 22.9 µM)	0.5 (≈ 1.43 µM)	> 71.7	–	> 71.7	–
O=C1O/C(=C\c2ccc(-c3ccccc3)cc2)C(O)=C1c1ccc2ccccc2c1	16 (≈ 41 µM)	4 (≈ 10.2 µM)	8 (≈ 20.5 µM)	4 (≈ 10.2 µM)	2 (≈ 5.12 µM)	> 64	–	> 64	–
O=C1O/C(=C\c2cccc(C(F)(F)F)c2)C(O)=C1c1cccc2ccccc12	32 (≈ 83.7 µM)	64 (≈ 167 µM)	> 128	32 (≈ 83.7 µM)	8 (≈ 20.9 µM)	> 65.4	> 65.4	> 65.4	–
O=C1O/C(=C\c2cccc(C(F)(F)F)c2)C(O)=C1c1ccc2ccccc2c1	8 (≈ 20.9 µM)	8 (≈ 20.9 µM)	32 (≈ 83.7 µM)	8 (≈ 20.9 µM)	8 (≈ 20.9 µM)	–	–	> 65.4	–
O=C1O/C(=C\c2ccccc2)C(O)=C1c1ccccc1 [PULVINONE]	–	–	–	–	–	–	–	–	≤ 30.3
O=C1O/C(=C\C2CCCCC2)C(O)=C1c1ccc2ccccc2c1	> 128	16 (≈ 49.9 µM)	32 (≈ 99.9 µM)	8 (≈ 25 µM)	≤ 0.12	–	–	–	–
O=C1O/C(=C(/C(=O)Nc2cccc(C(F)(F)F)c2)c2ccccc2)C(O)=C1c1ccccc1	–	–	–	–	–	–	–	–	17.7
O=C1O/C(=C\c2cccc(C(F)(F)F)c2Cl)C(O)=C1c1ccc(-c2ccccc2)c(F)c1	1 (≈ 2.17 µM)	1 (≈ 2.17 µM)	2 (≈ 4.34 µM)	0.5 (≈ 1.09 µM)	0.25 (≈ 0.543 µM)	–	–	–	–
O=C1O/C(=C\c2cccc(-c3cccc(Cl)c3)c2)C(O)=C1c1cccc(Cl)c1	> 128	1 (≈ 2.44 µM)	8 (≈ 19.5 µM)	4 (≈ 9.77 µM)	1 (≈ 2.44 µM)	–	–	–	–
O=C1O/C(=C\c2ccc(Cl)cc2)C(O)=C1c1ccc(-c2ccccc2)cc1	16 (≈ 42.7 µM)	16 (≈ 42.7 µM)	8 (≈ 21.3 µM)	4 (≈ 10.7 µM)	1 (≈ 2.67 µM)	> 66.7	–	> 66.7	–
O=C1O/C(=C\c2cc(C(F)(F)F)ccc2F)C(O)=C1c1ccc(-c2ccccc2)c(F)c1	2 (≈ 4.5 µM)	2 (≈ 4.5 µM)	2 (≈ 4.5 µM)	2 (≈ 4.5 µM)	0.5 (≈ 1.13 µM)	–	–	–	–
O=C1O/C(=C\c2cccc3ccccc23)C(O)=C1c1cccc(C(F)(F)F)c1	8 (≈ 20.9 µM)	8 (≈ 20.9 µM)	16 (≈ 41.8 µM)	8 (≈ 20.9 µM)	0.5 (≈ 1.31 µM)	> 65.4	–	> 65.4	–
O=C1O/C(=C\c2cccc(C(F)(F)F)c2)C(O)=C1c1ccc(-c2ccccc2)cc1	4 (≈ 9.79 µM)	4 (≈ 9.79 µM)	8 (≈ 19.6 µM)	4 (≈ 9.79 µM)	0.5 (≈ 1.22 µM)	–	12.2	> 61.2	–
O=C1O/C(=C\c2ccc(-c3cc(Cl)cc(Cl)c3)cc2)C(O)=C1c1cc(Cl)cc(Cl)c1	4 (≈ 8.37 µM)	0.5 (≈ 1.05 µM)	1 (≈ 2.09 µM)	0.5 (≈ 1.05 µM)	≤ 0.12	–	–	–	–
O=C1O/C(=C\c2ccc3ccccc3c2)C(O)=C1c1cccc(C(F)(F)F)c1	8 (≈ 20.9 µM)	8 (≈ 20.9 µM)	16 (≈ 41.8 µM)	4 (≈ 10.5 µM)	0.5 (≈ 1.31 µM)	> 65.4	–	> 65.4	–

Reference: ChEMBL document CHEMBL1148552, “Pulvinones as bacterial cell wall biosynthesis inhibitors” (Bioorg Med Chem Lett, 2006)
